assay: gradient 5% acetonitrile 3 min, to 50% in 2 min, to 85% in 15 min, held 3 min, 100 µL/min; details: column: Zorbax Extend-C18 2.1 x 50 mm; eluents: water / acetonitrile, 0.1% formic acid
Summary of the method: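 Data were gathered over 3 months by HPLC coupled to a quadrupole time-of-flight mass spectrometer, operated in positive and negative ionization mode. Mixtures of ~100 pure standards ran on a Zorbax Extend-C18 column (2.1 × 50 mm, 1.8 μm) at 100 μL/min, with water and acetonitrile each containing 0.1% formic acid and dead and dwell volumes of 40 μL and 900 μL. Retention time was read from adduct peaks picked by computer and checked manually.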

| SMILES | RP-LC retention time [s] |
| --- | --- |
| COc1ccc(CNC(=O)C2CCN(C(=O)C3Sc4ccccc4NC3=O)CC2)cc1 (stereo not drawn) | 731 |
| Cc1sc2ccn(CC(C)C)c(=O)c2c1C(=O)N(C)Cc1ccccc1 | 917 |
| COc1ccc(C2C(=O)N(C3CCCCC3)CC(=O)N2Cc2ccc3c(c2)OCO3)cc1OC (stereo not drawn) | 894 |
| O=C(O)CC1CCCN(c2cnn(CC3CC3)c(=O)c2)C1 (stereo not drawn) | 657 |
| CCOC(=O)c1ccc(NC(=O)N2CCc3nc[nH]c3C2)cc1 | 609 |
| COc1ccccc1N1CCN(c2cc(SCC(=O)Nc3cccc(C#N)c3)ncn2)CC1 | 895 |
| O=C(CSc1nnc2sc3ccccc3n12)Nc1ccc2c(c1)OCO2 | 691 |
| O=C(NCc1csc(-c2cccs2)n1)C1CCN(C(=O)COc2ccccc2)CC1 | 770 |
| O=C(COc1ccc(Cl)cc1)Nc1nnc(Cc2cccs2)o1 | 796 |
| O=C(NC1CCCCC1)C1COC2(CCN(C(=O)c3ccco3)CC2)N1C(=O)c1ccccc1 (stereo not drawn) | 748 |
| Cc1nc(-c2ccccn2)cc2nn(CC(=O)N3CCCc4ccccc43)c(=O)n12 | 789 |
| O=C(NCc1ccc(F)cc1)N1CCC(c2noc(-c3cnccn3)n2)C1 (stereo not drawn) | 705 |
| COc1ccccc1Nc1c(-c2ccc(OC)c(OC)c2)nc2cnccn12 | 806 |
| Cc1ccn2c(NC(=O)CCc3ccccc3)c(-c3ccccc3)nc2c1 | 642 |
| COc1ccccc1NS(=O)(=O)c1cn(CC(C)C)c2ncccc12 | 979 |
| O=C(O)CCC1CCN(S(=O)(=O)c2cccc(F)c2)CC1 | 765 |
| O=S(=O)(CCOc1ccc(F)cc1)Nc1ncccn1 | 670 |
| Cc1ccc(CNc2ncccc2-c2nnc(-c3ccc(Cl)cc3)o2)o1 | 1350 |
| COc1ccc(-c2noc(Cc3nnc(-c4cccc(Cl)c4)o3)n2)cc1OC | 973 |
| CC(=O)OCC1OC(N2CCC(=O)NC2=O)C(OC(C)=O)C1OC(C)=O (stereo not drawn) | 1040 |
| CCCN(CCC)c1nc2cc(C(=O)OC)ccc2c(=O)n1-c1ccccc1 | 1320 |
| COc1cc(OC)c(NC(=O)N2CCc3nc(-c4ccc(F)cc4)ncc3C2)cc1Cl | 1020 |

| SMILES | RP-LC retention time [s] |
| --- | --- |
| CN(C)c1ccc(N2C=C(C(=O)N3CCOCC3)S(=O)(=O)c3ccc(F)cc32)cc1 | 828 |
| Cc1cc(OCC(O)Cn2c(C3CC(=O)N(C(C)(C)C)C3)nc3ccccc32)cc(C)c1Cl (stereo not drawn) | 878 |
| CCN1CCCC1CNC(=O)c1nnc(-c2ccc(S(=O)(=O)N3CCOCC3)cc2)o1 (stereo not drawn) | 599 |
| Cc1occc1C(=O)N1CCc2nn(CC3CC3)c(=O)n2CC1 | 646 |
| Cc1ccc(-c2cc(C(=O)N(C)C)n(C)c2)cc1 | 891 |
| Cn1nc(C(=O)N2CCCC(C(=O)N3CCCC3)C2)c2c1CCN(C(=O)c1ccccc1F)C2 (stereo not drawn) | 658 |
| CCOc1ccccc1NC(=O)C1CCN(S(C)(=O)=O)c2cc(Cl)ccc2O1 (stereo not drawn) | 910 |
| Clc1c(Cl)c(Cl)c2n[nH]nc2c1Cl | 962 |
| O=C(NCc1ccncc1)C1CCN(c2ncnc3c2oc2ccccc23)CC1 | 593 |
| O=C(NCCCN1CCC(N2CCCCC2)CC1)c1cc(=O)n2c(nc3ccccc32)s1 | 577 |
| Cc1ccc(NC(=O)C2CCN(S(=O)(=O)c3cc(-c4noc(C5CC5)n4)cs3)CC2)cc1 | 1050 |
| CCCN1C(=O)Cc2ccccc2C1C(=O)NCc1ccccc1Br (stereo not drawn) | 831 |
| Cc1ccc(CNC(=O)C2(C)CCCN(C(=O)Nc3ccc(F)c(Cl)c3)C2)cc1 (stereo not drawn) | 1030 |
| COC(=O)c1c(NCc2c(C)noc2C)c2ccccc2[nH]c1=O | 661 |
| COc1ccccc1CNC(=O)c1cn2cc(C)ccc2n1 | 681 |
| CN(CC1CCOC1)C(=O)c1ccc(F)c(Cl)c1 (stereo not drawn) | 724 |
| COc1ccc(NC(=O)Cn2cnc(-c3ccc(F)cc3)cc2=O)c(OC)c1 | 754 |
| CCc1nc(OCC(=O)Nc2ccccc2C(=O)OC)c2ccccc2n1 | 902 |
| C[C@@H]1OC(Oc2ccccc2-c2cc(=O)c3c(O)cc(O)c([C@@H]4O[C@H](CO)[C@@H](O)[C@H](O)[C@H]4O)c3o2)[C@H](O)[C@H](O)[C@H]1O (stereo partly drawn) | 622 |
| COc1ccc(NC(=O)Cn2c(C)cc(-c3nnc(C)o3)c2C)cc1 | 732 |
| N#Cc1ccc(Cn2cc(C(=O)C(N)=O)c3ccccc32)cc1 | 810 |
| Cc1ccc(-c2nc(C3CC(=O)N(c4ccc(F)c(Cl)c4)C3)no2)cc1 (stereo not drawn) | 1160 |

| SMILES | RP-LC retention time [s] |
| --- | --- |
| c1ccc(-c2n[nH]c(C3CCCN(Cc4ccoc4)C3)n2)cc1 (stereo not drawn) | 531 |
| CCSCCOC(=O)C1=C(C)NC2=C(C(=O)CCC2)C1c1cccc(OC)c1OC (stereo not drawn) | 861 |
| CC(=O)N(C1CC1)C1CCOC2(CCN(C(=O)c3ccsc3)CC2)C1 (stereo not drawn) | 673 |
| CS(=O)(=O)N1CC(C(=O)Nc2ccc3c(c2)OCCO3)C2(CCCCC2)C1 (stereo not drawn) | 847 |
| CS(=O)(=O)N1CCC(C(=O)NCCc2csc(-c3cccs3)n2)CC1 | 695 |
| Cc1ccsc1CCNC(=O)C1CCN(C(=O)c2cc(-c3cccnc3)n[nH]2)CC1 | 625 |
| CCc1ccc(C(=O)c2cnc3ccc(OC)cc3c2N2CCN(C)CC2)cc1 | 614 |
| O=C(NCCC1=CCCCC1)C1CC(=O)N(C2CCCCCC2)C1 (stereo not drawn) | 906 |
| CCOc1cc2c(cc1OCC)C(c1ccc(OC)c(OC)c1OC)CC(=O)N2 (stereo not drawn) | 836 |
| O=C(NCCN1CCOCC1)C1CCN(c2nc3cccnc3s2)CC1 | 570 |
| COc1cccc(CNC(=O)CN2CCN(Cc3ccc(F)cc3)C2=O)c1OC | 772 |
| CCCN1C(=O)c2cc(S(=O)(=O)NC(C)c3ccccc3)ccc2Oc2cccnc21 (stereo not drawn) | 1070 |
| Cc1ccnc(NS(=O)(=O)c2ccc(NC(=O)c3ccc(-n4cccn4)nn3)cc2)n1 | 686 |
| COc1ccc(-c2ccc(=O)n(Cc3nc(-c4cccc(Cl)c4)no3)n2)cc1OC | 976 |
| C=CCN1C(=O)COc2ccc(-c3nc(NC(=O)C4CCCCC4)sc3C)cc21 | 1080 |
| COc1ccc(-c2cc3nn(CC(=O)Nc4ccc(F)cc4)c(=O)n3c(C)n2)cc1 | 914 |
| CC(Oc1ccc2c(c1)OCO2)C(=O)NCCn1nc(-c2cccs2)ccc1=O (stereo not drawn) | 712 |
| Cc1ccc(N2CCC(NC(=O)c3cc(F)cc(F)c3)C2=O)cc1C (stereo not drawn) | 943 |
| COc1ccc(OC)c(NC(=O)C2CCN(S(=O)(=O)c3cn(C(C)C)cn3)CC2)c1 | 778 |
| O=C(CN1CCN(Cc2ccccc2)C1=O)NCc1cccc(F)c1 | 761 |
| CCCC(NC(=O)c1cc(OC)cc(OC)c1)C(=O)Nc1nc2ccccc2[nH]1 (stereo not drawn) | 719 |
| COCCNC(=O)c1c(C)sc2ccn(Cc3ccc(F)cc3)c(=O)c12 | 749 |

| SMILES | RP-LC retention time [s] |
| --- | --- |
| COc1ccc(-c2nc3c(C)cccn3c2Nc2ccc(C)cc2)cc1 | 736 |
| CC1CCN(C(=O)c2nc3ccccn3c2-c2ccsc2)CC1 | 711 |
| CCc1cnc2c(c1SCC(=O)N(CC)CC)c(=O)n(C)c(=O)n2C | 786 |
| COc1cc(C(=O)N2CCN(c3cc(N4CCCC4)nc(C)n3)CC2)cc(OC)c1OC | 619 |
| Cc1cc(C)c(OCC(=O)N(Cc2ccc(C)o2)C2CCS(=O)(=O)C2)c(C)c1 (stereo not drawn) | 1030 |
| Cc1ccc(NC(=O)Cn2nc3c(N4CCN(c5ccccc5C)CC4)nccn3c2=O)cc1 | 1080 |
| CCOC(=O)C1CCN(CC(O)COC2CCCC2)CC1 (stereo not drawn) | 562 |
| N#Cc1cccc(NC(=O)C2CCN(S(=O)(=O)c3ccc4c(c3)NC(=O)CO4)CC2)c1 | 763 |
| O=C(Nc1ccccc1F)N1CCN(CCn2c(C(F)(F)F)nc3cccnc32)CC1 | 624 |
| COc1ccc2c(c1)CCc1sc(NC(=O)c3cc(Cl)ccc3OC)nc1-2 | 1270 |
| Cc1nnc(N2CCCC(C(=O)NCc3ccccc3Cl)C2)c2nn(-c3ccccc3)c(C)c12 (stereo not drawn) | 759 |
| O=C(Nc1nc2ccc(Cl)cc2s1)C1CCN(C(=O)C2Sc3ccccc3NC2=O)CC1 (stereo not drawn) | 903 |
| CCOc1ccc(CNC(=O)c2snc(C(=O)NCc3ccccc3Cl)c2N)cc1OCC | 1090 |
| CCOc1cccc(CNC(=O)c2sc3ncccc3c2-n2cccc2)c1 | 1050 |
| CC1CCCC(C)N1CCCNC(=O)Cn1ncc2c3ccccc3n(C)c2c1=O (stereo not drawn) | 632 |
| CCN1C(=O)COc2ccc(-c3noc(-c4ccc(CS(=O)(=O)c5ccccc5)cc4)n3)cc21 | 1060 |
| O=C(Nc1cccc([N+](=O)[O-])c1)c1cc2ccccc2cc1O | 1100 |
| Fc1ccc(OCc2cn(C3CN(Cc4cccc(F)c4)C3)nn2)cc1 | 688 |
| COc1ccc(-c2cc(N3CCCC(C(=O)Nc4nccs4)C3)ncn2)cc1 (stereo not drawn) | 582 |
| CCCn1cc(CCNC(=O)c2ccc(F)c(F)c2)c2cccnc21 | 791 |
| COc1ccc(N2CC(c3nnc(NC(=O)c4ccc(Cl)cc4)o3)CC2=O)cc1 (stereo not drawn) | 835 |
| Cc1nc2ccn(Cc3cccnc3)c(=O)c2cc1C(=O)NCCCc1ccco1 | 625 |

Source: the METLIN SMRT retention time set (Domingo-Almenara et al. 2019)
